Results published in publication PMC8252724 (2021).

What was measured:
[1] = tested on: c-Myc (Pu22) (DNA, G4) TGAGGGTGGGTAGGGTGGGTAA; assay: 1H NMR; details: 70 mM KCl, 25 mM KPi; pH 7, 298 K, 10% DMSO-d6, 0.1 mM DNA
[2] = tested on: FAM-Pu22 (DNA, G4) TGAGGGTGGGTAGGGTGGGTAA; assay: microscale thermophoresis; details: 150 mM KCl; 10 mM Tris-HCl, pH 7.4
[3] = tested on: c-Myc (Pu22) (DNA, G4) TGAGGGTGGGTAGGGTGGGTAA; assay: thiazole orange displacement (FID); details: 140 mM KCl, 20 mM Na cacodylate; pH 7, RT, 10% DMSO; 0.5 μM TO displaced, 0.5 μM DNA
[4] = tested on: FAM-Pu22 (DNA, G4) TGAGGGTGGGTAGGGTGGGTAA; assay: fluorescence intensity titration of labelled DNA; details: 150 mM KCl; 10 mM Tris-HCl, pH 7.4, RT, 2-3% DMSO, 50 nM DNA
[5] = tested on: dsDNA 24bp (FAM-duplex) (DNA, duplex) CGCGAATTCGCGCGCGAATTCGCG; assay: microscale thermophoresis; details: 150 mM KCl; 10 mM Tris-HCl, pH 7.4
[6] = tested on: c-Myc (Pu22) (DNA, G4) TGAGGGTGGGTAGGGTGGGTAA; assay: 1H NMR titration; details: 70 mM KCl, 25 mM KPi; pH 7, 298 K, 10% DMSO-d6, 0.1 mM DNA

Structure (SMILES)	binding [1]	K D MST [2]	DC50 FID [3]	K D FAM [4]	Kd [5]	binding [6]
CN(C)Cc1c[nH]c2ccc(N)cc12	weak	2.21 ± 0.89 µM	3.83 ± 0.11 µM	6.29 ± 0.71 µM	–	–
CN(C)Cc1c[nH]c2ccc([N+](=O)[O-])cc12	–	13.22 ± 0.80 µM	19.11 ± 0.88 µM	15.21 ± 1.93 µM	–	–
Cc1cc2cc(N)ccc2n1C	–	17.18 ± 0.54 µM	14.53 ± 0.61 µM	12.32 ± 0.94 µM	–	–
Cn1ccc2cc(N)ccc21	weak	2.32 ± 0.41 µM	3.71 ± 0.32 µM	6.30 ± 0.63 µM	–	–
NCCNCCNCCNCCNCc1c[nH]c2ncccc12	–	–	16.63 ± 1.93 µM	–	–	–
NCCNCCNCCNCCNCc1ccc2c(c1)OCO2	–	–	18.11 ± 1.69 µM	–	–	–
NCCNCCNCCNCCNCc1n[nH]c2ccccc12	–	–	15.63 ± 1.08 µM	–	–	–

Next, values leading:

binding [1]	K D MST [2]	DC50 FID [3]	K D FAM [4]	Kd [5]	binding [6]	Structure (SMILES)
–	2.86 ± 0.33 µM	6.31 ± 0.43 µM	7.12 ± 0.45 µM	18.0 ± 1.33 µM	–	Nc1ccc2c(ccn2CCCN2CCCC2)c1
yes	5.52 ± 0.61 µM	6.81 ± 0.9 µM	7.53 ± 0.93 µM	–	–	O=[N+]([O-])c1ccc2[nH]cc(CNCCN3CCCC3)c2c1
–	1.30 ± 0.21 µM	3.30 ± 0.86 µM	2.81 ± 0.37 µM	32.3 ± 1.69 µM	yes	O=[N+]([O-])c1ccc2c(c1)c(CNCCN1CCCC1)cn2CCCN1CCCC1
yes	1.49 ± 0.12 µM	5.01 ± 0.15 µM	2.43 ± 0.29 µM	38.1 ± 2.39 µM	–	O=[N+]([O-])c1ccc2c(ccn2CCCN2CCCC2)c1
–	–	16.11 ± 1.33 µM	–	–	–	c1cc2c(cc1CNCCN1CCCC1)OCO2
–	15.11 ± 0.30 µM	19.12 ± .92 µM	16.87 ± 1.58 µM	–	–	c1ccc2c(c1)ccn2CCCN1CCCC1
